Source: ChEMBL document CHEMBL2150865, “Remarkable potential of the α-aminophosphonate/phosphinate structural motif in medicinal chemistry” (J Med Chem, 2011)

What was measured:
[1] = target: Matrix metalloproteinase-14 (Homo sapiens, UniProt P50281); assay: Inhibition of MMP-14
[2] = target: Collagenase 3 (Homo sapiens, UniProt P45452); assay: Inhibition of MMP-13
[3] = target: T1, Farnesyl pyrophosphate synthase (Homo sapiens, UniProt P14324)
T1 sequence (P14324 whole entry): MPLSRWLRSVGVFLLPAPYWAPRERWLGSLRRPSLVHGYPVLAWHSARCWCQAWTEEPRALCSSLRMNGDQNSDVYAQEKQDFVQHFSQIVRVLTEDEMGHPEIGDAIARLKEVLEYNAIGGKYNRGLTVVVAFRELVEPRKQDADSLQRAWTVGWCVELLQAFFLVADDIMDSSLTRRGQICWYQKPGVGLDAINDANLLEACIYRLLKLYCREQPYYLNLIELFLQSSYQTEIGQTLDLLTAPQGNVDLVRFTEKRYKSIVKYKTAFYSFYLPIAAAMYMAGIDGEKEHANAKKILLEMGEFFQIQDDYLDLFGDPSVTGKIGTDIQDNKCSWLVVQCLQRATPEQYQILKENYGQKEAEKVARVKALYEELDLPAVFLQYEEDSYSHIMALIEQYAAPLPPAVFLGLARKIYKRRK

[4] = organism: Rattus norvegicus; assay: Inhibition of bone resorption in rat; format: functional; conditions: read-out: MED
[5] = Inhibition of Bacillus pasteurii urease; design: species or system Sporosarcina pasteurii
[6] = test system: Oryctolagus cuniculus; assay: Inhibition of DPP4 activity in rabbit plasma at 1 to 10 mg, iv; format: functional
[7] = Half life in pH 7.8 buffer; format: physicochemical
[8] = target: Aminopeptidase N (Homo sapiens, UniProt P15144); assay: Inhibition of APN
Sequence of Aminopeptidase N (P15144 whole entry): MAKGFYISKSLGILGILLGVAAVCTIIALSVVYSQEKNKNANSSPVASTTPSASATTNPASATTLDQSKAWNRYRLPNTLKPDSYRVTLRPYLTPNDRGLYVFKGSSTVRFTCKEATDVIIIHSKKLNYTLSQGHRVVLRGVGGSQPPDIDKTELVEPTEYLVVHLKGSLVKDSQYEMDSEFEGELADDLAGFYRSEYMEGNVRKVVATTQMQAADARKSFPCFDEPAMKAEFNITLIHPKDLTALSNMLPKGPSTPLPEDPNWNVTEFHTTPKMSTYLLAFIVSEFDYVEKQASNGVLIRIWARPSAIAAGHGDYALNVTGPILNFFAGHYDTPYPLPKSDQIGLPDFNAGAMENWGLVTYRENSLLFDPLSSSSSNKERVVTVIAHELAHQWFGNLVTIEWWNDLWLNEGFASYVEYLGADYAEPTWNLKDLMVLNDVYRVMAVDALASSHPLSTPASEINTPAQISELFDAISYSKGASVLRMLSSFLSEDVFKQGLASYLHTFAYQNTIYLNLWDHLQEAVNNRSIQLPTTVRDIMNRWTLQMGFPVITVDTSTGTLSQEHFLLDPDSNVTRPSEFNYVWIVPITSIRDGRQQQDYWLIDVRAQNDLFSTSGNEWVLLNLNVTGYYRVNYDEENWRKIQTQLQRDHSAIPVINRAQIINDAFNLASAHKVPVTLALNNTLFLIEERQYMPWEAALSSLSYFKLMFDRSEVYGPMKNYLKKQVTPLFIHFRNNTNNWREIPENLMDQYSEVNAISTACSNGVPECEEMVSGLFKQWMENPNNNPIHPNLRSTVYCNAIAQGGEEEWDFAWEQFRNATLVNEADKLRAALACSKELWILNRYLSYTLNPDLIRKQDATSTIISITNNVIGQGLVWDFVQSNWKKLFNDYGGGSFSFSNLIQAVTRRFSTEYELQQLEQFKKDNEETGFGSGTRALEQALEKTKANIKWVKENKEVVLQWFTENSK

[9] = target: Cytosol aminopeptidase (Homo sapiens, UniProt P28838); assay: Inhibition of LAP
Sequence of Cytosol aminopeptidase (P28838 whole entry): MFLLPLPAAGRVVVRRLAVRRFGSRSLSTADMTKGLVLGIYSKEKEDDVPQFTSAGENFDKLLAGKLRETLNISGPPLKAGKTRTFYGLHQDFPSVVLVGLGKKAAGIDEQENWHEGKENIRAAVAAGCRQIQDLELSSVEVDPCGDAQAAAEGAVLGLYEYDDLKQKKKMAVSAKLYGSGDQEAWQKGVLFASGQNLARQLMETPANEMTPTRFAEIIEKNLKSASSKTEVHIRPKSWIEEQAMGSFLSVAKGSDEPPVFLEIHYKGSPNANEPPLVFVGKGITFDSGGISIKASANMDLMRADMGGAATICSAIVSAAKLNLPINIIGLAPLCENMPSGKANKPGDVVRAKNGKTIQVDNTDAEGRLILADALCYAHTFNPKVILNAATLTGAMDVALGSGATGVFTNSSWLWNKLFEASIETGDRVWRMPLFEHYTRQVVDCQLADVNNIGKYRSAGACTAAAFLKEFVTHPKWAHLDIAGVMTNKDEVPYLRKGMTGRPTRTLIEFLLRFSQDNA

[10] = test system: Rattus norvegicus; assay: Suppression of acute pulmonary transplant rejection in rat at 100 mg/kg at 100 mg/kg followed by 60 mg/kg/day until day 4 after surgery measured on day 5 post initial dose; format: functional
[11] = test system: Rattus norvegicus; assay: Suppression of acute pulmonary transplant rejection in rat at 100 mg/kg; format: functional
[12] = AUC in healthy human at 10 mg dosed as single daily dose; format: ADME, organism-based; conditions: plasma
[13] = Tmax in healthy human at 10 mg dosed as single daily dose; format: ADME, organism-based; conditions: in vivo
[14] = Drug absorption in healthy human at 10 mg dosed as single daily dose; format: ADME, organism-based; conditions: in vivo, read-out: Drug absorption
[15] = test system: Homo sapiens; assay: Reduction in diastolic blood pressure in hypertensive patient receiving 10 to 40 mg/day, po dosed as single or multiple dose; format: functional, Artery; design: scale not given: the % may be the effect or the level left
[16] = Cmax in healthy human at 10 mg dosed as single daily dose; format: ADME, organism-based; design: dose 10 mg; conditions: in vivo
[17] = test system: Homo sapiens; assay: Reduction in systolic blood pressure in hypertensive patient receiving 10 to 40 mg/day, po dosed as single or multiple dose; format: functional, Artery; design: scale not given: the % may be the effect or the level left
[18] = test system: Homo sapiens; assay: Reduction in arterial blood pressure in hypertensive patient receiving 10 to 40 mg/day, po dosed as single or multiple dose; format: functional; design: scale not given: the % may be the effect or the level left
[19] = Inhibition of ECE
[20] = target: T2, Angiotensin-converting enzyme (Homo sapiens, UniProt P12821); assay: Inhibition of human ACE C-terminal domain expressed in CHO cells after 90 mins by fluorescence assay; format: cell-based
T2 sequence (P12821 whole entry, the tested form may be a part): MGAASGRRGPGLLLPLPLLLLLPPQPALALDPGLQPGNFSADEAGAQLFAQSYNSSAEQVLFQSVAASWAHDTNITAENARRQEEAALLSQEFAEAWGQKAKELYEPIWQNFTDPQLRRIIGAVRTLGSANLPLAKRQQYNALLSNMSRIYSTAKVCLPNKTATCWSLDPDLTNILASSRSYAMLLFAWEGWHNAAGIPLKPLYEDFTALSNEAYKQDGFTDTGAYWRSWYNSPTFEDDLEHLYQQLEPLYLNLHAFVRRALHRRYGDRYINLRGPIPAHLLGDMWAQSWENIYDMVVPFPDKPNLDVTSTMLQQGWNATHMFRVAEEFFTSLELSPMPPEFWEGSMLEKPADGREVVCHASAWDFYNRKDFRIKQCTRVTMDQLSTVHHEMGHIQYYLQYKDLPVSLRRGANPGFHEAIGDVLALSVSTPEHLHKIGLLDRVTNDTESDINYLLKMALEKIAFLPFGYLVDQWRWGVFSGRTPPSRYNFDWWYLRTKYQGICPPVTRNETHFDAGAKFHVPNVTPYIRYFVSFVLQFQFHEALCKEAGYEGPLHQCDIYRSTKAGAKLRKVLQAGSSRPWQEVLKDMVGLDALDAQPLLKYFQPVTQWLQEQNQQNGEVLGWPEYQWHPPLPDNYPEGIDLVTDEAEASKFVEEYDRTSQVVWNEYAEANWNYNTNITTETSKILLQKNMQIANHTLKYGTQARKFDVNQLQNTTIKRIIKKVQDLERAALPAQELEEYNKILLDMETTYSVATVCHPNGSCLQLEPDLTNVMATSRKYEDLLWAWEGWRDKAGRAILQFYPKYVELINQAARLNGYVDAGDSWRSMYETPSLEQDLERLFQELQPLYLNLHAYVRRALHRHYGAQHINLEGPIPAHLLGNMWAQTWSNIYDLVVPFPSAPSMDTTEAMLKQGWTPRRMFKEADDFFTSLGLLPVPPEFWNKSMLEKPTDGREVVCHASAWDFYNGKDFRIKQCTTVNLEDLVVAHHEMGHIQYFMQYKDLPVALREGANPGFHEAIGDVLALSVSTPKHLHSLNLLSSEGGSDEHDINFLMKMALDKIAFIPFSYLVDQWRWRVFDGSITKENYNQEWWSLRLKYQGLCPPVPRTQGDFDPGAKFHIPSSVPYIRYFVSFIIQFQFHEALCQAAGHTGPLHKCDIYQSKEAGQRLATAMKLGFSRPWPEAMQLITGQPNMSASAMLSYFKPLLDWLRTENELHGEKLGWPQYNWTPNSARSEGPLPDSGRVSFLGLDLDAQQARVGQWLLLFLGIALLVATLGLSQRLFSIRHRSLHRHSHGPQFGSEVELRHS

[21] = target: T2, Angiotensin-converting enzyme; assay: Inhibition of human ACE N-terminal domain expressed in CHO cells after 90 mins by fluorescence assay; format: cell-based
[22] = Inhibition of bacterial APN; design: species or system Bacteria
[23] = Inhibition of urease in intact Proteus mirabilis
[24] = target: T2, Angiotensin-converting enzyme; assay: Inhibition of ACE
[25] = Terminal half life in healthy human at 10 mg dosed as single daily dose; format: ADME, organism-based; conditions: in vivo, read-out: beta t1/2 (converted)
[26] = Total body clearance in healthy human at 10 mg dosed as single daily dose; format: ADME, organism-based; conditions: in vivo
[27] = Half life in Sprague-Dawley rat at 20 mg/kg, sc administered as single dose; format: ADME, organism-based; design: dose 20 mg/kg, route subcutaneous; conditions: in vivo
[28] = Tmax in Sprague-Dawley rat at 20 mg/kg, sc administered as single dose; format: ADME, organism-based; design: dose 20 mg/kg, route subcutaneous; conditions: in vivo
[29] = Half life in human at 200 mg, im; format: ADME, organism-based; conditions: in vivo
[30] = test system: Rattus norvegicus; assay: AUC in Sprague-Dawley rat at 20 mg/kg, sc administered as single dose; format: ADME, organism-based, Plasma; design: dose 20 mg/kg, route subcutaneous; conditions: in vivo
[31] = test system: MDA-MB-231; assay: Growth inhibition of human MDA-MB-231 cells; format: functional, cell-based

## NC(=O)[C@H](Cc1c[nH]c2ccccc12)NC(=O)[C@@H](CP(=O)(O)[C@H](Cc1ccccc1)NC(=O)OCc1ccccc1)c1cc(-c2cccc(Oc3ccccc3)c2)no1
[1]
  Ki: 5100 nM
[2]
  Ki: 28 nM

## O=P(O)(O)C(NC1CCCCCC1)P(=O)(O)O [INCADRONIC ACID]
[3]
  IC50: 30 nM
[4]
  minimal effective dose: 1 µg/kg

## CP(=O)(O)CN [AMINOMETHYL(METHYL)PHOSPHINIC ACID]
[5]
  Ki: 340000 nM

## O=C([C@@H]1CCCN1)N1CCCC1P(=O)(Oc1ccccc1)Oc1ccccc1 (stereo not given in full)
[6]
  inhibition (INH): 80%

## C[C@H](N)C(=O)N1CCCC1P(=O)(Oc1ccc(Cl)cc1)Oc1ccc(Cl)cc1 (stereo not given in full)
[7]
  half-life: > 48 h

## CC(C)CC(CP(=O)(O)[C@@H](N)CC(C)C)C(=O)O (mixture of isomers)
[8]
  Ki: 1020 nM
[9]
  Ki: 65 nM

## CC(=O)Nc1ccc(OP(=O)(Oc2ccc(NC(C)=O)cc2)C2CCCN2C(=O)[C@@H]2CCCN2)cc1 (stereo not given in full)
[10]
  Activity: >90%
[11]
  Activity: >95%
[7]
  half-life: 5.33 h

## CCC(=O)O[C@@H](O[P@](=O)(CCCCc1ccccc1)CC(=O)N1C[C@H](C2CCCCC2)C[C@H]1C(=O)O)C(C)C [FOSINOPRIL]
[12]
  AUC: 1000 ng·h/mL
[13]
  Tmax: 3 h
[14]
  Fa: 30%
[15]
  Activity: 10%
[16]
  Cmax: 100 ng/mL
[17]
  Activity: 10%
[18]
  Activity: 10%

## O=C(N[C@@H](Cc1ccccc1)P(=O)(O)C[C@H](Cc1cc(-c2ccccc2)no1)C(=O)N[C@@H](Cc1ccc(O)cc1)C(=O)O)OCc1ccccc1
[19]
  Ki: 14 nM

## NCP(=O)(O)CO [AMINOMETHYL(HYDROXYMETHYL)PHOSPHINIC ACID]
[5]
  Ki: 95000 nM

## CN(C)CP(C)(=O)O [(DIMETHYLAMINO)METHYL(METHYL)PHOSPHINIC ACID]
[5]
  Ki: 620 nM

## CC(=O)N[C@@H](CC(=O)O)C(=O)N[C@@H](Cc1ccccc1)P(=O)(O)C[C@@H](C)C(=O)N[C@@H](C)C(N)=O
[20]
  Ki: 7500 nM
[21]
  Ki: 7 nM

## NCCCC(O)(P(=O)(O)O)P(=O)(O)O [ALENDRONIC ACID]
[4]
  minimal effective dose: 1 µg/kg

## C[C@H](N)P(=O)(O)C[C@@H](Cc1ccccc1)C(=O)N[C@@H](Cc1ccccc1)C(=O)O
[22]
  Ki: 1.5 nM

## C[C@H](N)C(=O)N1CCCCC1P(=O)(Oc1ccc(Cl)cc1)Oc1ccc(Cl)cc1 (stereo not given in full)
[7]
  half-life: > 48 h

## CC(=O)NO [ACETOHYDROXAMIC ACID]
[23]
  IC50: 64400 nM

## CP(O)(=S)CNC(=O)CNC(=O)OCc1ccccc1 (stereo not given)
[5]
  Ki: 170 nM

## O=C(O)[C@@H]1C[C@@H](C2CCCCC2)CN1C(=O)CP(=O)(O)CCCCc1ccccc1 [FOSINOPRILAT]
[24]
  Ki: 1.5 nM
[25]
  half-life: 12 h
[26]
  clearance: 25.8 mL/min

## O.O=P(O)(O)C(O)(Cn1ccnc1)P(=O)(O)O [ZOLEDRONIC ACID]
[4]
  minimal effective dose: 0.1 µg/kg

## C[C@H](N)C(=O)N[C@@H](C)P(=O)(O)O [ALAFOSFALIN]
[27]
  half-life: 0.333 h
[28]
  Tmax: 0.333 h
[29]
  half-life: 1 h
[30]
  AUC: 25000 ng·h/mL

## CNCP(=O)(O)CO [HYDROXYMETHYL((METHYLAMINO)METHYL)PHOSPHINIC ACID]
[5]
  Ki: 430 nM

## O=C(N[C@@H](CCc1ccccc1)CP(=O)(O)CC(=O)N1CCC[C@H]1C(=O)O)c1ccccc1
[24]
  IC50: 12 nM

## CP(=O)(O)CNC(=O)CN
[5]
  Ki: 21000 nM

## CNCP(C)(=O)O [METHYL((METHYLAMINO)METHYL)PHOSPHINIC ACID]
[5]
  Ki: 18000 nM
[23]
  IC50: 36000 nM

## NCCC(O)(P(=O)(O)O)P(=O)(O)O [PAMIDRONIC ACID]
[4]
  minimal effective dose: 30 µg/kg

## O=C(N[C@@H](Cc1ccccc1)P(=O)(O)C1CCC[C@H]1C(=O)N[C@@H](Cc1c[nH]c2ccccc12)C(=O)O)OCc1ccccc1 (stereo not given in full)
[20]
  Ki: 3 nM
[21]
  Ki: 10000 nM

## CC(C)CC(N)P(=O)(O)O[C@@H](CC(C)C)C(=O)O (stereo not given in full)
[9]
  Ki: 58000 nM

## CN(C)CP(=O)(O)CO [(DIMETHYLAMINO)METHYL(HYDROXYMETHYL)PHOSPHINIC ACID]
[5]
  Ki: 5000 nM

## CCCCCCCCCCOc1ccc[n+](CC(P(=O)([O-])O)P(=O)(O)O)c1 (stereo not given)
[31]
  IC50: 100 nM

## O=P(O)(O)C(O)(Cc1cccnc1)P(=O)(O)O [RISEDRONIC ACID]
[4]
  minimal effective dose: 0.3 µg/kg

## CCOC(=O)CNC(=O)c1ccc(OP(=O)(Oc2ccc(C(=O)NCC(=O)OCC)cc2)C2CCCN2C(=O)[C@@H]2CCCN2)cc1 (stereo not given in full)
[7]
  half-life: 0.583 h
